Data on 8 molecules can be found in PMC10223470 (Molecules, 2023).

Counter-ions that a name gives are not always drawn. Like-named read-outs stand apart in the source and are kept apart here.

Assay [1] addresses T1, human dopamine D3 receptor (Homo sapiens, UniProt P35462).
T1 construct: expressed in transfected cells; host or cells: CHO-K1
Nature of the assay: Competition radioligand binding at human D3 receptor ([3H]-Spiperone). The following applies: mean ± SEM of 2 independent experiments, read-out: huD3 % inh. at 10 µM. On the procedure: (§1) Competition radioligand binding assays were performed on membranes isolated from cell lines stably expressing the cloned human receptors, which were either in-house or commercially available. […] Assays (250 μL assay final volume) were carried out in 96-well polypropylene plates in duplicate. In short, the suspension of appropriate membrane protein was incubated in an assay buffer with the addition of the corresponding radioligand, in the presence or absence of a tested compound or reference compound. […] After the incubation, the content of the test plates was transferred to 96 well plates with glass fiber filter GF/B or GF/C, previously pretreated with polyethyleneimine (PEI), and rapidly filtered with the use of vacuum, followed by rapid washing with cold (4 °C) wash buffer. After that, the filter plates were dried at 60 °C for 1 h. Then, 30 μL of liquid scintillation cocktail (UniverSol-ES, MP Biomedicals, Solon, OH, USA) was added to each well of the filter plates, and the radioactivity was measured in a MicroBeta^2 microplate scintillation counter (PerkinElmer, Madrid, Spain).
(§2) Competition binding curves were fitted to a one-site competition binding model (Fit Ki) with the use of Prism 7 software (GraphPad, San Diego, CA, USA). logKi (log of the equilibrium dissociation constant (Ki)) values were obtained after constraining the concentration of radioligand employed in the assay and its dissociation constant (KD) as determined in saturation radioligand binding assays.

The target of assay [2] is T2, human D2S receptor (Homo sapiens, UniProt P14416).
T2 construct: expressed in transfected cells; host or cells: CHO-K1
Nature of the assay: Functional assays of cAMP signalling at D2 receptors (CHO-K1 cells, HTRF). The following applies: for Kb: antagonism of 1 µM dopamine response. The format is cell-based. On the procedure: The assessment of the activity of selected compounds at the D2 receptor was performed in cell-based functional assays of cAMP signaling, in the CHO-K1 cell line with stable expression of the cloned human D2S receptor, which was also employed for the radioligand binding assays. For D2 receptor antagonism, test compounds were dispensed into an empty 96-well plate (Isoplate-96 Black Frame White Well, PerkinElmer España SL, Madrid, Spain) with the use of the dispensing noncontact Echo 550 acoustic liquid handler (LABCYTE Inc., San Jose, CA, USA). Compounds were handled from frozen 10^−2 M stock solutions in 100% DMSO, from which serial 1000× solutions were prepared in 100% DMSO at the time of the assay, keeping vehicle concentration (0.1% DMSO) constant in the assay. Vials containing viable frozen cells were quickly thawed in a 37 °C water bath and cells were seeded into the assay plate in assay buffer (kit stimulation buffer containing 500 µM 3-isobutyl-1-methylxanthine (IBMX), which was directly added to the buffer as powder). […] After 10 min incubation at 37 °C, 10 µM forskolin was added to the corresponding wells, and incubation was continued for 5 min. After this time, cellular cAMP levels were quantified using the homogeneous time-resolved fluorescence (HTRF)-based cAMP Gs dynamic kit (Cisbio, Bioassays, Codolet, France) according to the manufacturer’s protocol. […] Basal cAMP levels were determined in control wells in the absence of compound, agonist, and forskolin.

The target of assay [3] is T3, human dopamine D1 receptor (Homo sapiens, UniProt P21728).
T3 construct: expressed in transfected cells; host or cells: CHO-K1
Nature of the assay: Competition radioligand binding at human D1 receptor ([3H]-SCH-23390). The following applies: mean ± SEM of 2 independent experiments, read-out: huD1 % inh. at 10 µM. As to the method:
as §1, §2

Assay [4] concerns the target T4, human 5-HT2A receptor (Homo sapiens, UniProt P28223).
T4 construct: expressed in transfected cells; host or cells: CHO-K1
Nature of the assay: Competition radioligand binding at human 5-HT2A receptor ([3H]-Ketanserin). The following applies: mean ± SEM of 2 independent experiments, read-out: hu5-HT2A % inh. at 10 µM. On the procedure: as §1, §2

The target of assay [5] is T5, human 5-HT1A receptor (Homo sapiens, UniProt P08908).
T5 construct: expressed in transfected cells; host or cells: HEK293
T5 sequence (P08908 1-422): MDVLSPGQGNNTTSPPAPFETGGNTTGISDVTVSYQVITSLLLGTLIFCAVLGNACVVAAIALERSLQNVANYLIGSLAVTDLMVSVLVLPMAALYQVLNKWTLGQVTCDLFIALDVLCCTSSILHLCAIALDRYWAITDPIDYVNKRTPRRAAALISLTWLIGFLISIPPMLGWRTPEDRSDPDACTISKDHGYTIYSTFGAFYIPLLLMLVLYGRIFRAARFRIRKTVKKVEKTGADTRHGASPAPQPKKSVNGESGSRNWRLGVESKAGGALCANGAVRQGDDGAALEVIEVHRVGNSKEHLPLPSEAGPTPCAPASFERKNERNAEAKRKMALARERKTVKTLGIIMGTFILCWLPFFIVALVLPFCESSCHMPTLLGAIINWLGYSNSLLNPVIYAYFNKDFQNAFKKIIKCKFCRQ
Nature of the assay: Competition radioligand binding at human 5-HT1A receptor ([3H]-8-OH-DPAT). The following applies: mean ± SEM of 2 independent experiments, read-out: hu5-HT1A % inh. at 10 µM. On the procedure: as §1, §2

Assay [6] concerns the target T6, human 5-HT7 receptor (Homo sapiens, UniProt P34969).
T6 construct: expressed in transfected cells; host or cells: HEK293
Description: Competition radioligand binding at human 5-HT7 receptor ([3H]-SB269970). The following applies: mean ± SEM of 2 independent experiments, read-out: hu5-HT7 % inh. at 10 µM. On the procedure: as §1, §2

In assay [7] the target is T2, human D2S receptor. Description: Competition radioligand binding at human D2 receptor ([3H]-Spiperone, CHO-K1 membranes). The following applies: for inhibition at 10 µM: read-out: huD2 % inh. at 10 µM. On the procedure:
Experiments were carried out in membranes isolated from a CHO-K1 cell line stably overexpressing the cloned human D2S receptor.
as §1, §2

Assay [8] concerns mice. Description: Elevated plus-maze (EPM) test. The format is in vivo. The following applies: 1 mg/kg s.c., 60 min before the test; p < 0.05 versus vehicle. On the procedure: (§3) The experiments were carried out on 6 weeks old naive Swiss male mice (Experimental Medicine Center (OMD), Lublin, Poland), weighing 28–30 g. The cages with mice were located in air-conditioned rooms maintaining the ambient temperature within the range of 23–25 °C. The animals were provided with a natural 12 h day/night cycle, replicating the day and night mode. Each testing group was represented by 8–10 animals, depending on the research schedule. All experiments were conducted according to the National Institute of Health Guidelines for the Care and Use of Laboratory Animals (8th edition) and to the European Community Council Directive for the Care and Use of Laboratory Animals of 22 September 2010 (2010/63/EU) and were approved by the Local Ethical Committee (number of ethical approval: 147/2018).
(§4) Compound 17 (25, 50, 75 mg/kg) was suspended in 1% Tween 80 in saline solution and was administered intraperitoneally (i.p.) 60 min before the test. Diazepam (DZ, Relanium, Polfa, Poland) at a dose of 1 mg/kg was diluted in 0.9% saline containing 1% Tween 80 and was administered subcutaneously (s.c.), 60 min before the test. Imipramine hydrochloride (30 mg/kg, Sigma-Aldrich was administered intraperitoneally (i.p.) 60 min before the test. D-amphetamine sulfate (3 mg/kg; Sigma-Aldrich, USA) was given subcutaneously (s.c.). Prior to administration, the agent was dissolved in saline and injected 30 min before the test. Control animals received an (i.p.) or (s.c.) injection of a respective vehicle. All compounds were injected in a manner generally accepted in experimental pharmacology, in an amount of 10 mL/kg body weight.
The experiment was carried out on mice according to the method of Lister. […] The number of entries into the open arms and the time spent in these arms were scored for a 5-min test period. […] The following measures were obtained from the test: the total number of arm entries, the percentage of entries into the open arms, the time spent in the open arms expressed as a percentage of the time spent in both the open and closed arms. […]

Assay [9] deals with mice. Nature of the assay: Amphetamine-induced hyperactivity in mice. The format is in vivo. The following applies: amphetamine 3 mg/kg s.c. On the procedure: as §3, §4
The measurement of the spontaneous locomotor activity was carried out using the OptoVarimex 4 Auto-Track device (Columbus Instruments, Columbus, OH, USA). Tested animals are kept in cages for 30 min. Their activity was recorded as interruptions of the light beams after 10 and 30 min of the test, and it was calculated automatically as a traveled distance in cm (±SEM). To determine whether compound 17 has an influence on amphetamine-induced hyperactivity, each mouse received 17 (25, 50 and 75 mg/kg; i.p.) and amphetamine (3 mg/kg; s.c.) 30 min after injection of 17 or vehicle and then spontaneous locomotor activity was measured.

The subject of assay [10] is mice. Description: Forced swim test (FST). The format is in vivo. The following applies: imipramine 30 mg/kg i.p., 60 min before the test; p < 0.001. On the procedure: The experiments were carried out on 6 weeks old naive Swiss male mice (Experimental Medicine Center (OMD), Lublin, Poland), weighing 28–30 g. The cages with mice were located in air-conditioned rooms maintaining the ambient temperature within the range of 23–25 °C. The animals were provided with a natural 12 h day/night cycle, replicating the day and night mode. Each testing group was represented by 8–10 animals, depending on the research schedule. All experiments were conducted according to the National Institute of Health Guidelines for the Care and Use of Laboratory Animals (8th edition) and to the European Community Council Directive for the Care and Use of Laboratory Animals of 22 September 2010 (2010/63/EU) and were approved by the Local Ethical Committee (number of ethical approval: 147/2018). Compound 17 (25, 50, 75 mg/kg) was suspended in 1% Tween 80 in saline solution and was administered intraperitoneally (i.p.) 60 min before the test. […] Imipramine hydrochloride (30 mg/kg, Sigma-Aldrich was administered intraperitoneally (i.p.) 60 min before the test. […] Sigma-Aldrich, USA) was given subcutaneously (s.c.). Prior to administration, the agent was dissolved in saline and injected 30 min before the test. Control animals received an (i.p.) or (s.c.) injection of a respective vehicle. All compounds were injected in a manner generally accepted in experimental pharmacology, in an amount of 10 mL/kg body weight. Forced Swim Test was carried out according to the method of Porsolt et al.. It is a standard behavioral test, called the resignation test, which is used to determine the effectiveness of antidepressant drugs in laboratory rodents. Each mouse was placed individually for 6 min into a glass cylinder (height 25 cm, diameter 10 cm) with 15 cm of water at 23–25 °C. After the first 2 min of the test, the total duration of immobility (in seconds) was measured. An animal was judged to be immobile when it ceased struggling and remained floating motionless and making only movements allowing it to keep the head just above the surface of the water.

T2 sequence (P14416 1-414 isoform P14416-2): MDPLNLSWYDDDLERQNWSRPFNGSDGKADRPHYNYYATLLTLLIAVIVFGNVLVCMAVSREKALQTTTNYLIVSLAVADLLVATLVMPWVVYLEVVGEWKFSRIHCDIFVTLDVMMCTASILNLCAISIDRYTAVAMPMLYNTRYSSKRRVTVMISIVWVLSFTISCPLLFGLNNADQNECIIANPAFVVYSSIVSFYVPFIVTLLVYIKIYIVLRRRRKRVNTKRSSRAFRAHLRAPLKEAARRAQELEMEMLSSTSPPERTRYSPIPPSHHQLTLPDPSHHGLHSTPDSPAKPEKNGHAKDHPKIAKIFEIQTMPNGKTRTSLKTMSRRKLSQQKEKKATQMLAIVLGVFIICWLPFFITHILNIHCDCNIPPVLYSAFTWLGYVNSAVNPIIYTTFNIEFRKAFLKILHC
T1 sequence (P35462 whole entry): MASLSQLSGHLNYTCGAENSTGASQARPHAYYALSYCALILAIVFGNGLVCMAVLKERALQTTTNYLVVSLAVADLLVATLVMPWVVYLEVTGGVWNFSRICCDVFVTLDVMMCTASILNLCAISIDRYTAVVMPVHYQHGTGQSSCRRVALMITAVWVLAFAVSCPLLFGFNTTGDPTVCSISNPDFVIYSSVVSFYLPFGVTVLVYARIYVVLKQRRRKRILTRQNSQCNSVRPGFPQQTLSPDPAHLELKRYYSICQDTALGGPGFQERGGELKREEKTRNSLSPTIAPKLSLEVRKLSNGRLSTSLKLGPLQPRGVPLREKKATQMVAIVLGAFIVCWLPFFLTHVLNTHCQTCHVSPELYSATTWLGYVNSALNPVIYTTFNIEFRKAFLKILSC
T4 sequence (P28223 whole entry): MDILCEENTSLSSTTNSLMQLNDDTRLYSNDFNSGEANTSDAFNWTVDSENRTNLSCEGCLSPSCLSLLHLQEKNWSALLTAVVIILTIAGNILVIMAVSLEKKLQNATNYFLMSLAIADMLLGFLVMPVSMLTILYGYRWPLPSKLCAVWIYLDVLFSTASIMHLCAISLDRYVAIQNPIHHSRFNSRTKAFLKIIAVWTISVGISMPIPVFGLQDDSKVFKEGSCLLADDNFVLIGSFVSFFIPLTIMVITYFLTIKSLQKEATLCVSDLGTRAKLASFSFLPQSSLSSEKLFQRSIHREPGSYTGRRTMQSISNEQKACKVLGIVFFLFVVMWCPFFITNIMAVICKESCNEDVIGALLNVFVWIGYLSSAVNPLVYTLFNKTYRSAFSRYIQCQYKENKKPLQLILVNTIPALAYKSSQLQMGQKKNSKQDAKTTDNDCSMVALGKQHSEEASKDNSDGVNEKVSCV
T3 sequence (P21728 whole entry): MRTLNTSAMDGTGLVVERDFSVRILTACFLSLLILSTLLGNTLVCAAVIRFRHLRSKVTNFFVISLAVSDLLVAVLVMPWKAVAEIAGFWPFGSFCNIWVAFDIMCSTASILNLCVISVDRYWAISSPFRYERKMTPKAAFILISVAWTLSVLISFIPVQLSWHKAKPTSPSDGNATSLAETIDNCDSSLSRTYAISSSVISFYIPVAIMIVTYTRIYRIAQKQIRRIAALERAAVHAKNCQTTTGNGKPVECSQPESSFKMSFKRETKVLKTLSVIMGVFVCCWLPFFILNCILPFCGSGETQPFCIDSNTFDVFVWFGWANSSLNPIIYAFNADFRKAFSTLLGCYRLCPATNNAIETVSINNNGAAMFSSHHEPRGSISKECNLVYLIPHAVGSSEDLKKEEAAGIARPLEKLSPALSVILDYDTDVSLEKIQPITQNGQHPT
T6 sequence (P34969 whole entry): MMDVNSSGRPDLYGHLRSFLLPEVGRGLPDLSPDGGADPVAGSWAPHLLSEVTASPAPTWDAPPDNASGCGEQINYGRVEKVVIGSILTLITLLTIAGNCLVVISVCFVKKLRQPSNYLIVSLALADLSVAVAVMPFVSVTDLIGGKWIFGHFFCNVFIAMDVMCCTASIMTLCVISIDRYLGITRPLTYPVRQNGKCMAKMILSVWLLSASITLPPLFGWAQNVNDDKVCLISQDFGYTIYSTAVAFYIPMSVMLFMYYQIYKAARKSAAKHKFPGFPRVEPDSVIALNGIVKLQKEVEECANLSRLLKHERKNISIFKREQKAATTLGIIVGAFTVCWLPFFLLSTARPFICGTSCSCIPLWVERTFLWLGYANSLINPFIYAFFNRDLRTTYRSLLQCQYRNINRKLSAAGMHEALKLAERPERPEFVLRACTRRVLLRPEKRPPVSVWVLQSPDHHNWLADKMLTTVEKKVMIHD

Take `Cc1ccc(NC(=O)CCN2C(=O)CSc3ccccc32)cc1` [Compound 14, 3-(3-Oxo-2,3-dihydro-4H-benzo[b][1,4]thiazin-4-yl)-N-(p-tolyl)propanamide]: the inhibition at 10 µM worked out at 8 ± 4% in assay [1]; 15 ± 2% in assay [3]; 15 ± 1% in [4]; 27 ± 2% in assay [5]; 0% in [6]. Moreover, the Kb is 117 nM in assay [2] (forskolin-stimulated cAMP, three independent experiments, read-out: D2 Signalling (cAMP) pKb (Mean ± SEM) (converted)) and 119 nM in assay [2] (Leff-Dougall variant of Cheng-Prusoff, read-out: D2 Signalling (cAMP) Kb (Mean)). Moreover, in assay [2] (cAMP signaling, CHO-K1 cells), the “efficacy at D2 receptor (mode of action)” value is listed as “antagonism”. For the same molecule, the Ki in [7] (mean ± SEM of 2–3 independent experiments in duplicate, read-out: huD2 Ki) was determined as 676 ± 134 nM.

Regarding `COc1cccc(NC(=O)CCN2C(=O)CSc3ccccc32)c1` [Compound 19, N-(3-Methoxyphenyl)-3-(3-oxo-2,3-dihydro-4H-benzo[b][1,4]thiazin-4-yl)propanamide], in assay [7], the inhibition at 10 µM was determined as 10 ± 4%.

On to `COc1ccc(NC(=O)CCN2C(=O)CSc3ccccc32)cc1` [Compound 20, N-(4-Methoxyphenyl)-3-(3-oxo-2,3-dihydro-4H-benzo[b][1,4]thiazin-4-yl)propanamide], for which the inhibition at 10 µM in assay [7] was found to be 47 ± 1%.

For the molecule `O=C(CCN1C(=O)CSc2ccccc21)Nc1ccccc1[N+](=O)[O-]` [Compound 21, N-(2-Nitrophenyl)-3-(3-oxo-2,3-dihydro-4H-benzo[b][1,4]thiazin-4-yl)propanamide], the inhibition at 10 µM in [7] was determined as 5 ± 3%.

As for `O=C(CCN1C(=O)CSc2ccccc21)Nc1cccc([N+](=O)[O-])c1` [Compound 22, N-(3-Nitrophenyl)-3-(3-oxo-2,3-dihydro-4H-benzo[b][1,4]thiazin-4-yl)propanamide], the inhibition at 10 µM in assay [7] stood at 27 ± 2%.

With `CN1C(=O)CN=C(c2ccccc2)c2cc(Cl)ccc21` [Diazepam, reference compound], the “time spent in the open arms of the maze” value in assay [8] is on record as “statistically significant increase”.

Turning to `C[C@H](N)Cc1ccccc1` [amphetamine, D-amphetamine sulfate, reference compound], in assay [9], the “effect on locomotor activity compared to the control group after 10 min” value is “increased mice locomotor activity” and the “effect on locomotor activity compared to the control group after 30 min” value was “increased mice locomotor activity”.

In the case of `CN(C)CCCN1c2ccccc2CCc2ccccc21` [imipramine, Imipramine hydrochloride, reference compound], in assay [10], the “effect on immobility time” value is “statistically significant decrease”.

What is called Ki is a dissociation constant, usually derived from enzyme kinetics or from competition with a known ligand.
